Reference: ChEMBL document CHEMBL2375281, “Exploring the UDP pocket of LpxC through amino acid analogs” (Bioorg Med Chem Lett, 2013)

Assay: Lipophilicity, log D of the compound
Type: physicochemical
Conditions: octanol/water

Row | SMILES | logD
1 | NC(=O)C[C@H](NC(=O)c1ccc(C#Cc2ccccc2)cc1)C(=O)NO | 1
2 | C#CCNC(=O)C[C@H](NC(=O)c1ccc(C#Cc2ccccc2)cc1)C(=O)NO | 3
3 | O=C(NC1(C(=O)NO)CCSCC1)c1ccc(C#Cc2ccccc2)cc1 | > 3
4 | O=C(NC1(C(=O)NO)CCNCC1)c1ccc(C#Cc2ccccc2)cc1 | 3
5 | O=C(NC1(C(=O)NO)CCN(Cc2ccccc2)CC1)c1ccc(C#Cc2ccccc2)cc1 | > 3
6 | O=C(CNC(=O)c1ccc(C#Cc2ccccc2)cc1)NO | 3
7 | O=C(N[C@@H](CO)C(=O)NO)c1ccc(C#Cc2ccccc2)cc1 | 2
8 | CSC[C@H](NC(=O)c1ccc(C#Cc2ccccc2)cc1)C(=O)NO | 3
9 | CC(C)C(NC(=O)c1ccc(C#Cc2ccccc2)cc1)C(=O)NO (racemic) | > 3

Further lines, results first:

Row | logD | SMILES
10 | > 3 | O=C(N[C@@H](C(=O)NO)c1ccccc1)c1ccc(C#Cc2ccccc2)cc1
11 | 2 | O=C(C[C@H](NC(=O)c1ccc(C#Cc2ccccc2)cc1)C(=O)NO)NCCCO
12 | 2 | COCCNC(=O)C[C@H](NC(=O)c1ccc(C#Cc2ccccc2)cc1)C(=O)NO
13 | > 3 | O=C(NC1(C(=O)NO)CCC1)c1ccc(C#Cc2ccccc2)cc1
14 | > 3 | O=C(NC1(C(=O)NO)CCCCC1)c1ccc(C#Cc2ccccc2)cc1
15 | > 4 | O=C(NC1(C(=O)NO)CCOCC1)c1ccc(C#Cc2ccccc2)cc1
16 | 3 | O=C(NC1(C(=O)NO)CCS(=O)(=O)CC1)c1ccc(C#Cc2ccccc2)cc1
17 | 2 | C[C@H](O)[C@H](NC(=O)c1ccc(C#Cc2ccccc2)cc1)C(=O)NO
18 | 3 | CC(C)(NC(=O)c1ccc(C#Cc2ccccc2)cc1)C(=O)NO
19 | 2 | O=C(N[C@H](CO)C(=O)NO)c1ccc(C#Cc2ccccc2)cc1
20 | 2 | NC[C@H](NC(=O)c1ccc(C#Cc2ccccc2)cc1)C(=O)NO
21 | 2 | CS(=O)(=O)C[C@H](NC(=O)c1ccc(C#Cc2ccccc2)cc1)C(=O)NO
22 | 3 | O=C(N[C@H](C(=O)NO)c1ccccc1)c1ccc(C#Cc2ccccc2)cc1
23 | > 3 | CC(NC(=O)c1ccc(C#Cc2ccccc2)cc1)C(=O)NO (racemic)
